Read-outs that look alike come from different tables or passages of the source. Values belong to the compound of their own block, whether it stands above or below them.
What was measured:
[1] = Transepithelial transport of clorsulon across MDCKII parental cell monolayers; type: in vitro ADME, Canine; settings: dog, MDCK, MDCKII parental cells, clorsulon 10 μM, with or without ivermectin 10 μM, abamectin 2.5 μM, Ko143 1 μM, mean ± SD
human ABCG2 = system: human ABCG2; parameters: method as in PMID 37078871; settings: human ABCG2 transduced cell line; cited from earlier work
[2] = Plasma pharmacokinetics of clorsulon in lactating Assaf sheep; type: in vivo; settings: female
Protocol: (§1) Studies with sheep were carried out on the Experimental Farm of the University of León, following institutional guidelines in accordance with European legislation (2010/63/EU). Procedures were also approved by the Animal Care and Use Committee of the University of León ULE-008-2019 (25/09/2019). Eighteen lactating sheep (3–4 months in lactation) of between 77–83 kg were used. Animals were previously dewormed and they had ad libitum access to drinking water. Sheep were randomly distributed in three experimental groups. All received a subcutaneous (s.c.) injection of clorsulon at 2 mg/kg (dissolved in DMSO, 80 mg/mL); one group coadministrated with another s.c. injection of ivermectin at 0.2 mg/kg (Ivomec® 1%, Merial, France) and another group with another s.c. injection of abamectin at 0.2 mg/kg (dissolved in DMSO, 8 mg/mL). Blood samples were taken from the jugular vein, while milk samples were obtained after completing milking of the gland before each treatment and at intervals of 1, 2, 4, 6, 8, 10, 12, 24, 30, 48, 72, 96, 120 and 168 h thereafter. Plasma was separated by centrifuging at 1200 g 15 min. Samples were stored at −20°C until analyzed.
(§2) Samples were analyzed by HPLC under conditions which have been previously described ([31]). Briefly, the chromatographic system used included a Waters 2695 separation module and a Waters 2998 UV photodiode array detector. Separation was performed on a reversed-phase column ([…], […], Torrance, CA, United States). The mobile phase consisted of potassium phosphate 0.01 M (pH 7): acetonitrile (75:25). The flow rate was set at 1.20 mL/min, with UV absorbance measured at 225 nm, and the column temperature maintained at 35°C.
(§3) In vitro samples were injected directly into the HPLC system. In vivo samples, milk and plasma, were extracted following a formerly described method ([31]) with minor modifications. For milk and plasma samples, 10 μL of albendazole-2-aminosulfone (6.25 μg/mL) as internal standard and 200 μL of ethyl acetate were added to each 100 μL. Then, the mixture was vortexed horizontally for 1 min and centrifuged at 8000 g for 10 min at 4°C. The resulting supernatant was collected and subjected to evaporation under N2 at 30°C until dryness. To the evaporated samples, 500 μL of hexane and 300 μL of acetonitrile was added, the mixture was again vortexed horizontally for 1 min and centrifuged at 3000 g for 10 min at 4°C. Hexane was removed and the rest was evaporated to dryness under nitrogen stream. After being resuspended in 100 μL of cold methanol, samples were injected into the HPLC system.
(§4) Plasma and milk concentrations for each animal were analyzed using PK solution 2.0 computer program (Summit Research Services, Ashland, OH) to calculated pharmacokinetic parameters as previously described ([27]).

[3] = parameters: method as in earlier work; settings: cattle, s.c. 2 mg/kg clorsulon; cited from earlier work
ovine ABCG2 [4] = system: ovine ABCG2
Protocol: (§5) This study employed Madin-Darby Canine Kidney (MDCKII) cells that had been previously transduced with ovine ABCG2. […] Briefly, cells were grown in DMEM (Dulbecco’s modified Eagle’s medium) enriched with glutamax (Life Technologies, Inc., Rockville, MD, United States) and supplemented with penicillin (50 units/mL), streptomycin (50 μg/mL), and 10% (v/v) fetal calf serum (MP Biomedicals, Solon, OH, United States) at a temperature of 37°C and 5% of CO2. Every 3 to 4 days, cells were trypsinized for subculturing.
(§6) Transcellular transport experiments using ovine ABCG2-transduced cells were conducted following the method previously described ([33]). Cells were seeded onto microporous polycarbonate membrane filters (3.0 μm pore size, 24 mm diameter; Transwell 3414; Costar, Corning, NY) at a density of 1.0 × 10^6 per well. The tightness of the monolayer was assessed by measuring its transcellular resistance using Millicell ERS (Millipore Burlington, MA).
(§7) Two hours before the beginning, preincubation was carried out replacing medium in both compartments with 2 mL of transport medium [Hanks’ balanced salt solution supplemented with HEPES (25 mM)] with or without the macrocyclic lactones (10 μM ivermectin and 2.5 μM abamectin). The experiment began with the replacement of the medium in either the apical or basal compartment with transport medium containing clorsulon (10 μM), with or without the same concentration of macrocyclic lactones. Aliquots of 100 μL at 1, 2 and 3 h in the opposite compartment were taken, this volume being replaced with fresh medium. At 4 h, 600 μL aliquots were taken in both compartments. Until analysis by high-performance liquid chromatography (HPLC), samples were stored at −20°C. After concluding the experiment, the confluence of the monolayer was evaluated by means of the Lucifer Yellow permeability assay ([34]). Transport proficiency of these cells was consistently verified through the evaluation of a typical ABCG2 substrate, danofloxacin ([25]).
(§8) The apparent permeability coefficients (Papp) across MDCKII parent and MDCKII oABCG2 cells monolayers in both apical to basal (A-B) (Papp A-B) and basal to apical (B-A) (Papp B-A) directions were calculated using following equation: Papp = (ΔQ/Δt)*(1/A*Co), where ΔQ/Δt is the rate of corresponding clorsulon appearing in the receiver chamber, which was obtained as the slope of the regression line on the transport time profile of clorsulon across the cell monolayers (from 0 to 4 h); Co is the initial concentration of drug; A is the cell monolayer surface area (4.67 cm^2). The efflux ratio is the Papp B-A/Papp A-B quotient.

[5] = Milk pharmacokinetics of clorsulon in lactating Assaf sheep; type: in vivo; settings: clorsulon 2 mg/kg s.c., alone or with ivermectin or abamectin 0.2 mg/kg s.c., mean ± SD, n = 6
Protocol: as §1, §2, §3, §4

ovine ABCG2 [6] = experiment: in vitro; settings: sheep
Protocol: as §5, §6, §7, §8

murine ABCG2 = system: murine ABCG2; parameters: method as in PMID 37078871; settings: murine ABCG2 transduced cell line; cited from earlier work
ovine ABCG2 [7] = settings: at 25 μM in ovine ABCG2-transduced cells; cited from earlier work
[8] = sc, clorsulon 2 mg/kg s.c., alone or with ivermectin or abamectin 0.2 mg/kg s.c., mean ± SD, n = 6
[9] = MDCKII oABCG2 cells, ivermectin 10 μM, abamectin […], Ko143 1 μM

Papp A→B at 4 h, 10 μM ([1]; n ≥ 3, read-out: AP-BL (Papp A-B)): 2.27 ± 0.46 ×10⁻⁶ cm/s
Papp B→A at 4 h, 10 μM ([1]; n ≥ 3, read-out: BL-AP (Papp B-A)): 2.41 ± 0.46 ×10⁻⁶ cm/s
efflux ratio at 4 h, 10 μM ([1]; read-out: Efflux ratio Papp B-A/Papp A-B): 1.07 ± 0.06
AUC(0-inf) [2, 8]: 43300 ± 6400 ng·h/mL
Cmax [2, 8]: 2130 ± 280 ng/mL
MRT [2, 8]: 25 ± 3.97 h
Tmax [2, 8]: 6.67 ± 1.93 h
half-life ([2]; sc, clorsulon 2 mg/kg s.c., alone or with ivermectin or abamectin 0.2 mg/kg s.c., mean ± SD, n = 6, read-out: T1/2 of clorsulon in plasma (converted)): 19 ± 2.38 h
concentration at 8 h ([2]; subcutaneous, 8 h after clorsulon 2 mg/kg s.c., alone or with ivermectin 0.2 mg/kg s.c.): 1950 ± 240 ng/mL
Transport by ovine ABCG2 (substrate, in words) (ovine ABCG2 [4]; MDCKII oABCG2 cells, clorsulon 10 μM): efficiently transported
Kp ([5]; female, Assaf, milk/plasma, subcutaneous, sheep, read-out: AUC milk/AUC plasma): 0.49 ± 0.14
AUC(0-inf) ([5]; female, Assaf, sc, sheep milk): 20700 ± 4970 ng·h/mL
Cmax ([5]; female, Assaf, sc, sheep milk): 650 ± 290 ng/mL
MRT ([5]; female, Assaf, sc, sheep milk): 40.8 ± 6.15 h
Tmax ([5]; female, Assaf, sc, sheep milk): 10 ± 1.26 h
half-life ([5]; female, Assaf, sc, sheep milk, read-out: T1/2 of clorsulon in milk (converted)): 25.9 ± 3.72 h
Dose excreted (%) in milk (72 h) ([5]; sheep milk, 72 h): 0.86 ± 0.28%
Papp A→B at 4 h, 10 μM (ovine ABCG2 [6]): 1.13 ± 0.16 ×10⁻⁶ cm/s
Papp B→A at 4 h, 10 μM (ovine ABCG2 [6]): 3.23 ± 0.88 ×10⁻⁶ cm/s
efflux ratio at 4 h, 10 μM (ovine ABCG2 [6]): 2.92 ± 0.93
Compound: Nc1cc(C(Cl)=C(Cl)Cl)c(S(N)(=O)=O)cc1S(N)(=O)=O [Clorsulon]
Efflux transport ratio (human ABCG2): 1.63 ± 0.17
Maximum plasma concentration [3]: 2.5 µg/mL
Time of maximum plasma concentration [3]: 6 h
Efflux transport ratio (murine ABCG2): 2.20 ± 0.13

Compound: COc1ccc2c3c([nH]c2c1)[C@H](CC(C)C)N1C(=O)[C@H](CCC(=O)OC(C)(C)C)NC(=O)[C@@H]1C3 [Ko143]
Inhibition of clorsulon (10 μM) transport mediated by ovine ABCG2 (in words) (ovine ABCG2 [4]; [9]): complete inhibition

Compound: Abamectin
Inhibition of clorsulon (10 μM) transport mediated by ovine ABCG2 (in words) (ovine ABCG2 [4]; [9]): effectively inhibited

Compound: Ivermectin
Inhibition of clorsulon (10 μM) transport mediated by ovine ABCG2 (in words) (ovine ABCG2 [4]): effectively inhibited
Inhibition potency value (ovine ABCG2 [7]): 45.9%

— article PMC10622746, “Coadministration of ivermectin and abamectin affects milk pharmacokinetics of the antiparasitic clorsulon in Assaf sheep” (Frontiers in Veterinary Science, 2023)
